According to patent US9096565B2, “Inhibitors of histone deacetylase” (MethylGene Inc., priority 2007, dated 2015):

Each compound was assayed against one or more of HDAC-4, HDAC-5, HDAC-6, HDAC-7, HDAC-8, HDAC-9, HDAC-10 and HDAC-11 (assay: Inhibition of histone deacetylase enzymatic activity (summary statement over isoforms)). Conditions: Table 3, selected examples; HDAC isoform not given.
Format: biochemical
How it was run: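 Activity was measured as deacetylation of the fluorogenic substrate Boc-Lys(trifluoroacetyl)-AMC over 20-30 min at 37 °C, after a 5 min room-temperature preincubation of enzyme with compound. Trypsin (1 mg/mL) with a reference HDAC inhibitor ended the reaction.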

SMILES	IC50 [nM]
O=C(NO)C(c1ccccc1)c1nnc(-c2ccc3ccccc3c2)s1 (stereo not drawn) [Compound 5-54, N-hydroxy-2-(5-(naphthalen-2-yl)-1,3,4-thiadiazol-2-yl)-2-phenylacetamide]	1000 to 15000
CC(C)Nc1cccc(C(C(=O)NO)c2ccccc2)c1 (stereo not drawn) [Compound 3-72, N-hydroxy-2-(3-(isopropylamino)phenyl)-2-phenylacetamide]	1000 to 15000
O=C(CN(Cc1ccccc1)S(=O)(=O)c1ccccc1)NO [Compound 1-5, 2-(N-benzylphenylsulfonamido)-N-hydroxyacetamide]	1000 to 15000
Cc1ccccc1NC(=O)N1CCN(C(C(=O)NO)c2ccccc2)CC1 (stereo not drawn) [Compound 2-36, 4-(2-(hydroxyamino)-2-oxo-1-phenylethyl)-N-o-tolylpiperazine-1-carboxamide]	1000 to 15000
O=C(NO)C(c1ccccc1)c1cccc(-c2ccncc2)c1 (stereo not drawn) [Compound 5-30, N-hydroxy-2-phenyl-2-(3-(pyridin-4-yl)phenyl)acetamide]	< 1000
O=C(NO)C(Sc1ccccc1)c1ccccc1 (stereo not drawn) [Compound 1-12, N-hydroxy-2-phenyl-2-(phenylthio)acetamide]	< 1000
CC(C)Nc1ccc(C(C(=O)NO)c2ccccc2)cc1 (stereo not drawn) [Compound 3-79, N-hydroxy-2-(4-(isopropylamino)phenyl)-2-phenylacetamide]	< 1000
CN(C)C(=O)c1ccc(-c2cccc(C(C(=O)NO)c3ccccc3)c2)cc1 (stereo not drawn) [Compound 2-109, 3′-(2-(hydroxyamino)-2-oxo-1-phenylethyl)-N,N-dimethylbiphenyl-4-carboxamide]	< 1000
O=C(Nc1cccc(C(C(=O)NO)c2ccccc2)c1)c1cccc(Cl)c1 (stereo not drawn) [Compound 2-73, 3-chloro-N-(3-(2-(hydroxyamino)-2-oxo-1-phenylethyl)phenyl)benzamide]	1000 to 15000
O=C(NO)C(c1ccc(N2CCOCC2)cc1)c1c(F)cccc1F (stereo not drawn) [Compound 6-24, 2-(2,6-difluorophenyl)-N-hydroxy-2-(4-morpholinophenyl)acetamide]	1000 to 15000
O=CN(O)C(c1ccccc1)c1ccc(OCc2ccccc2)cc1 (stereo not drawn) [Compound 5-98, N-((4-(benzyloxy)phenyl)(phenyl)methyl)-N-hydroxyformamide]	1000 to 15000
CCCOc1ccc(OC(C(=O)NO)c2ccccc2)cc1 (stereo not drawn) [Compound 7-41, N-hydroxy-2-phenyl-2-(4-propoxyphenoxy)acetamide]	1000 to 15000
Cc1ccsc1C(=O)Nc1cccc(C(C(=O)NO)c2ccccc2)c1 (stereo not drawn) [Compound 2-66, N-(3-(2-(hydroxyamino)-2-oxo-1-phenylethyl)phenyl)-3-methylthiophene-2-carboxamide]	1000 to 15000
O=C(NO)C(c1ccc(N2CCOCC2)cc1)c1cccc(F)c1F (stereo not drawn) [Compound 6-22]	< 1000
O=C(NO)C(c1ccccc1)c1cccc(OCC2CCCCC2)c1 (stereo not drawn) [Compound 3-32, 2-(3-(cyclohexylmethoxy)phenyl)-N-hydroxy-2-phenylacetamide]	1000 to 15000
CN(CCc1ccccc1)c1ccc(C(C(=O)NO)c2ccccc2)cc1 (stereo not drawn) [Compound 6-40, N-hydroxy-2-(4-(methyl(phenethyl)amino)phenyl)-2-phenylacetamide]	< 1000
COc1ccccc1C(C(=O)NO)c1ccc(N2CCOCC2)cc1 (stereo not drawn) [Compound 5-129, N-hydroxy-2-(2-methoxyphenyl)-2-(4-morpholinophenyl)acetamide]	1000 to 15000
O=C(Nc1ccc(C(C(=O)NO)c2ccccc2)cc1)c1ccc2c(c1)OCO2 (stereo not drawn) [Compound 2-75, N-(4-(2-(hydroxyamino)-2-oxo-1-phenylethyl)phenyl)benzo[d][1,3]dioxole-5-carboxamide]	< 1000

SMILES	IC50 [nM]
CC(C)CCNc1ccc(C(C(=O)NO)c2ccccc2)cc1 (stereo not drawn) [Compound 2-77, N-hydroxy-2-(4-(isopentylamino)phenyl)-2-phenylacetamide]	< 1000
O=C(NO)C(c1ccccc1)N1CCN(C(=O)Nc2cccnc2)CC1 (stereo not drawn) [Compound 2-34, 4-(2-(hydroxyamino)-2-oxo-1-phenylethyl)-N-(pyridin-3-yl)piperazine-1-carboxamide]	1000 to 15000
O=C(NO)C(c1ccccc1)n1ccc(-c2ccccc2)c1 (stereo not drawn) [Compound 5-2, N-hydroxy-2-phenyl-2-(3-phenyl-1H-pyrrol-1-yl)acetamide]	< 1000
CN1CCC(Oc2ccc(C(C(=O)NO)c3ccccc3)cc2)CC1 (stereo not drawn) [Compound 5-99, N-hydroxy-2-(4-(1-methylpiperidin-4-yloxy)phenyl)-2-phenylacetamide]	< 1000
O=C(NO)C(c1ccccc1)c1ccc(N2CCN(c3ccccn3)CC2)cc1 (stereo not drawn) [Compound 5-66, N-hydroxy-2-phenyl-2-(4-(4-(pyridin-2-yl)piperazin-1-yl)phenyl)acetamide]	< 1000
O=C(NO)C(Sc1nccc(-c2ccc(Cl)cc2)n1)c1ccccc1 (stereo not drawn) [Compound 1-37, 2-(4-(4-chlorophenyl)pyrimidin-2-ylthio)-N-hydroxy-2-phenylacetamide]	< 1000
O=C(NO)C(Oc1ccc2c(c1)CCC2)c1ccccc1 (stereo not drawn) [Compound 2-16, 2-(2,3-dihydro-1H-inden-5-yloxy)-N-hydroxy-2-phenylacetamide]	1000 to 15000
O=C(NO)C(Sc1nc2cccnc2s1)c1ccccc1 (stereo not drawn) [Compound 5-46, N-hydroxy-2-phenyl-2-(thiazolo[5,4-b]pyridin-2-ylthio)acetamide]	< 1000
O=C(NO)C(c1ccccc1)c1ccc(C#CCC2CCCC2)cc1 (stereo not drawn) [Compound 2-98, 2-(4-(3-cyclopentylprop-1-ynyl)phenyl)-N-hydroxy-2-phenylacetamide]	< 1000
O=C(NO)C(c1ccccc1)c1ccc(-c2cncnc2)cc1 (stereo not drawn) [Compound 5-23, N-hydroxy-2-phenyl-2-(4-(pyrimidin-5-yl)phenyl)acetamide]	< 1000
CC(COc1ccc(C(C(=O)NO)c2ccccc2)cc1)CN(C)C (stereo not drawn) [Compound 3-18, 2-(4-(3-(dimethylamino)-2-methylpropoxy)phenyl)-N-hydroxy-2-phenylacetamide]	1000 to 15000
O=C(NO)C(c1ccc([N+](=O)[O-])cc1)c1ccc([N+](=O)[O-])cc1 [Compound 1-3, N-hydroxy-2,2-bis(4-nitrophenyl)acetamide]	< 1000
O=C(NO)C(c1ccccc1)c1ccc(N2CCN(Cc3ccccc3)CC2)cc1 (stereo not drawn) [Compound 5-65, 2-(4-(4-benzylpiperazin-1-yl)phenyl)-N-hydroxy-2-phenylacetamide]	< 1000
CN1CCCC1CCOc1cccc(C(C(=O)NO)c2ccccc2)c1 (stereo not drawn) [Compound 3-20, N-hydroxy-2-(3-(2-(1-methylpyrrolidin-2-yl)ethoxy)phenyl)-2-phenylacetamide]	< 1000
O=C(NO)C(c1ccccc1)N1CCN(C(=O)Cc2ccccc2)CC1 (stereo not drawn) [Compound 2-28, N-hydroxy-2-phenyl-2-(4-(2-phenylacetyl)piperazin-1-yl)acetamide]	1000 to 15000
CC(C)C(=O)ONC(=O)C(c1ccccc1)c1ccc(N2CCOCC2)cc1 (stereo not drawn) [Compound 5-121, N-(isobutyryloxy)-2-(4-morpholinophenyl)-2-phenylacetamide]	1000 to 15000
O=C(NO)C(Oc1ccc(F)c(Cl)c1)c1ccccc1 (stereo not drawn) [Compound 7-34, 2-(3-chloro-4-fluorophenoxy)-N-hydroxy-2-phenylacetamide]	1000 to 15000
O=C(NO)C(c1ccccc1)c1ccc(-c2ccc3c(c2)CCO3)cc1 (stereo not drawn) [Compound 2-113, 2-(4-(2,3-dihydrobenzofuran-5-yl)phenyl)-N-hydroxy-2-phenylacetamide]	< 1000
